Laboratory results reported in patent US20250368632A1, “CR[…] AND CONJUGATES THEREOF” (Universitat Bielefeld, priority 2021, published 2025).

Experiments:
KB-3-1 cells = assay: Resazurin cell viability (cytotoxicity) assay, 72 h incubation, KB-3-1 cells; assay type: cell-based; details: resazurin fluorescence, drug concentration at which vitality is 50%, read-out: IC50 values of cryptophycin compounds, KB-3-1 cells
Description: (§1) The KB-3-1 and KB—V1 cells were cultivated as a monolayer in DMEM (Dulbecco's modified Eagle medium) with glucose (4.5 g L^−1), L-glutamine, sodium pyruvate and phenol red, supplemented with 10% (KB-3-1) and 15% (KB—V1) fetal bovine serum. 50 μg mL^−1 gentamycin is added for the KB—V1 cells. The cells were maintained at 37° C. and 5.3% CO2/humidified air. KB—V1 cells were continuously selected during cultivation with vinblastine sulfate (150 nM). On the day before the test, the cells (70% confluence) were detached with trypsin/ethylenediaminetetraacetic acid (EDTA) solution (0.05%/0.02% in DPBS) and plated in sterile 96-well plates in a density of 10,000 cells in 100 μL medium per well. The dilution series of the compounds were prepared from stock solutions in DMSO of concentrations of […]. The stock solutions were diluted with culture medium (15% FBS [KB—V1]; 10% FBS [KB-3-1]) at least 50 times. Some culture medium was added to the wells to adjust the volume of the wells to the wanted dilution factor. The dilution prepared from stock solution was added to the wells. Each concentration was tested in six replicates. Dilution series were prepared by pipetting liquid from well to well. The control contained the same concentration of DMSO as the first dilution. After incubation for 72 h at 37° C. and 5.3% CO2/humidified air, 30 μL of an aqueous resazurin solution (175 μM) was added to each well. The cells were incubated at the same conditions for 6 h. Subsequently, the fluorescence was measured. The excitation was effected at a wavelength of 530 nm, whereas the emission was recorded at a wavelength of 588 nm. The IC50 values were calculated as a sigmoidal dose response curve using GraphPad Prism 4.03. The IC50 values equal the drug concentrations, at which vitality is 50%.

KB-V1 cells = assay: Resazurin cell viability (cytotoxicity) assay, 72 h incubation, KB-V1 cells (selected with vinblastine); assay type: cell-based; details: resazurin fluorescence, drug concentration at which vitality is 50%, read-out: IC50 values of cryptophycin compounds, KB-V1 cells
Description: as §1

Substance	IC50 (KB-3-1 cells) [nM]	IC50 (KB-V1 cells) [nM]
Cryptophycin [Compound H8, Cryptophycin [uD-Ser]]	0.12	1100
Cryptophycin-[uD-Dab(Alloc)] [Compound C5]	0.22	400
Cryptophycin-[uD-Dab-Me2] [Compound C7]	0.038	210
Cryptophycin-[uD-Dab] [Compound C6]	1	> 50000
Cryptophycin-[uD-HSe(AII)] [Compound Y7]	0.018	93
Cryptophycin-[uD-HSe] [Compound Y8]	0.8	> 500
Cryptophycin-[uD-Lys(Alloc)] [Compound G5]	4200	> 500
Cryptophycin-[uD-Lys] [Compound G6]	60000	> 500
Cryptophycin-[uD-Met] [Compound T7]	0.02	49
Cryptophycin-[uD-Ser(AII)] [Compound H7]	0.011	29
Cryptophycin-[uD-Thr(Allyl)] [Compound Z6]	1.5	> 1000
Cryptophycin-[uD-Thr] [Compound Z7]	0.026	300
Cryptophycin-uD[Dab(Alloc,Me)] [Compound B10]	0.021	90
Cryptophycin-uD[Dap(AII, Me)] [Compound C10]	0.021	0.87
Cryptophycin-uD[Dap(Alloc,Me)] [Compound P10]	0.045	890
Cryptophycin-uD[Dap(Me)] [Compound P11]	0.0087	21
